# Assay results reported in ChEMBL document CHEMBL1201862, “PubChem BioAssay data set” (2004).
#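 Briefly, cells in 96-well plates were exposed to five compound concentrations for 48 h, and endpoints were estimated by linear interpolation. GI50 is the concentration that inhibits growth by half.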 Calls of active or inactive are those of the source. Cut-off read from the data, not from the text of the source: active = GI50 up to about 1.1 µM and inactive = higher.
# Columns and labels:
# Test in all cases: growth of human tumour cells (NCI), 48 h
# A549 = system: A549
# CAKI-1 = system: CAKI-1
# UACC-62 = system: UACC-62
# KM12 = system: KM12
# LOX IMVI = system: LOX IMVI
# OVCAR-5 = system: OVCAR-5
# RXF 393 = system: RXF 393
# SK-MEL-2 = system: SK-MEL-2
# SK-OV-3 = system: SK-OV-3
# K562 = system: K562
# DMS-273 = system: DMS-273
# HCT-15 = system: HCT-15
# SF-268 = system: SF-268
# NCI-H226 = system: NCI-H226
# ACHN = system: ACHN
# NCI-H522 = system: NCI-H522
# MDA-MB-435 = system: MDA-MB-435
# T47D = system: T47D
# BT-549 = system: BT-549
# Hs-578T = system: Hs-578T
Structure (SMILES),GI50 (A549),GI50 (CAKI-1),GI50 (UACC-62),GI50 (KM12),GI50 (LOX IMVI),GI50 (OVCAR-5),GI50 (RXF 393),GI50 (SK-MEL-2),GI50 (SK-OV-3),GI50 (K562),GI50 (DMS-273),GI50 (HCT-15),GI50 (SF-268),GI50 (NCI-H226),GI50 (ACHN),GI50 (NCI-H522),GI50 (MDA-MB-435),GI50 (T47D),GI50 (BT-549),GI50 (Hs-578T)
CC1(C(=O)O)CCC[C@@]2(C)C1CC[C@@]1(C)c3cocc3CCC21 (some centres undefined),70.8 µM (inactive),> 100 µM (inactive),> 100 µM (inactive),> 100 µM (inactive),> 100 µM (inactive),> 100 µM (inactive),> 100 µM (inactive),> 100 µM (inactive),> 100 µM (inactive),40.9 µM (inactive),> 100 µM (inactive),> 100 µM,> 100 µM (inactive),> 100 µM (inactive),> 100 µM (inactive),,,,,
CC1/C=C/[C@@]2(C)CCC(C(C)(C)O)C2C(O)C[C@](C)(O)/C=C/C1 (some centres undefined),> 100 µM (inactive),> 100 µM (inactive),> 100 µM (inactive),> 100 µM (inactive),> 100 µM (inactive),> 100 µM (inactive),> 100 µM (inactive),> 100 µM (inactive),> 100 µM (inactive),65.9 µM (inactive),> 100 µM (inactive),> 100 µM,> 100 µM (inactive),7.31 µM (inactive),> 100 µM (inactive),,,,,
O=c1[nH]nc(-c2ccccc2)c(-c2ccccc2)c1-n1nc(-c2ccccc2)c2ccccc2c1=O,83.4 µM (inactive),> 100 µM (inactive),> 100 µM (inactive),65.8 µM (inactive),,> 100 µM (inactive),,69 µM (inactive),> 100 µM (inactive),27.9 µM (inactive),89.5 µM (inactive),78 µM,> 100 µM (inactive),> 100 µM (inactive),50.8 µM (inactive),34 µM (inactive),,,,
O=C1N=C2Sc3ccc4ccccc4c3N2C1=O,19.6 µM (inactive),24.1 µM (inactive),40.5 µM (inactive),32.7 µM (inactive),19.2 µM (inactive),50.7 µM (inactive),20.2 µM (inactive),26.4 µM (inactive),15.5 µM (inactive),33 µM (inactive),22.8 µM (inactive),24.2 µM,24.7 µM (inactive),22.1 µM (inactive),28.8 µM (inactive),,,,,
O=C1OC2C=CC1C1(CCOC1=O)C2 (centres undefined),> 100 µM (inactive),> 100 µM (inactive),28.8 µM (inactive),> 100 µM (inactive),> 100 µM (inactive),> 100 µM (inactive),,> 100 µM (inactive),,> 100 µM (inactive),> 100 µM (inactive),> 100 µM,> 100 µM (inactive),> 100 µM (inactive),> 100 µM (inactive),> 100 µM (inactive),,,,
CCCCCCCCCCCCCC(=O)OCC1OC(OC)C(NC(=O)N(CCCl)N=O)C(O)C1O (centres undefined),15.6 µM (inactive),> 100 µM (inactive),1.97 µM (inactive),24.4 µM (inactive),10.1 µM (inactive),25.6 µM (inactive),16.4 µM (inactive),38.1 µM (inactive),,12.5 µM (inactive),12.9 µM (inactive),34.8 µM,7.96 µM (inactive),24.8 µM (inactive),10.5 µM (inactive),> 10 µM (inactive),,,,
COc1cc2c(c(OC)c1OC)-c1ccc(SC)c(=O)cc1[C@@H](NCc1cccc([N+](=O)[O-])c1)CC2,< 0.01 µM (active),< 0.01 µM (active),< 0.01 µM (active),< 0.01 µM (active),< 0.01 µM (active),> 100 µM (inactive),< 0.01 µM (active),< 0.01 µM (active),< 0.01 µM (active),< 0.01 µM (active),< 0.01 µM (active),,< 0.01 µM (active),< 0.01 µM (active),< 0.01 µM (active),< 0.01 µM (active),,,,
O=C1/C(=C\c2ccccc2)c2ccccc2N1/N=C\c1ccccc1,76.2 µM (inactive),> 100 µM (inactive),90.4 µM (inactive),49.1 µM (inactive),> 100 µM (inactive),> 100 µM (inactive),,> 100 µM (inactive),> 100 µM (inactive),42.7 µM (inactive),> 100 µM (inactive),43.9 µM,> 100 µM (inactive),> 100 µM (inactive),> 100 µM (inactive),,,,,
O=C(Nc1nnc(S)[nH]1)C(=O)C1C(=O)Nc2ccccc2[S+]1[O-] (centres undefined),> 100 µM (inactive),> 100 µM (inactive),> 100 µM (inactive),> 100 µM (inactive),> 100 µM (inactive),,,,> 100 µM (inactive),,> 100 µM (inactive),> 100 µM,> 100 µM (inactive),,> 100 µM (inactive),> 100 µM (inactive),,,,
c1ccc(SC(CCCCC(Sc2ccccc2)Sc2ccccc2)Sc2ccccc2)cc1,> 100 µM (inactive),> 100 µM (inactive),> 100 µM (inactive),> 100 µM (inactive),> 100 µM (inactive),,> 100 µM (inactive),> 100 µM (inactive),> 100 µM (inactive),> 100 µM (inactive),> 100 µM (inactive),> 100 µM,> 100 µM (inactive),,> 100 µM (inactive),,,,,
CCOC(=O)C1C(=O)c2cccc(OC)c2C2COC(=O)N12 (centres undefined),> 100 µM (inactive),,> 100 µM (inactive),> 100 µM (inactive),> 100 µM (inactive),> 100 µM (inactive),> 100 µM (inactive),> 100 µM (inactive),> 100 µM (inactive),> 100 µM (inactive),> 100 µM (inactive),> 100 µM,> 100 µM (inactive),> 100 µM (inactive),> 100 µM (inactive),> 100 µM (inactive),,,,
Nc1nc(=O)c2cc(NCc3ccc(C(=O)NC(CCC(=O)O)C(=O)O)cc3)ccc2[nH]1 (centres undefined),80.7 µM (inactive),34.4 µM (inactive),45.9 µM (inactive),> 100 µM (inactive),14.1 µM (inactive),> 100 µM (inactive),> 100 µM (inactive),> 100 µM (inactive),> 100 µM (inactive),> 100 µM (inactive),,> 100 µM,59 µM (inactive),> 100 µM (inactive),4.31 µM (inactive),> 100 µM (inactive),> 100 µM (inactive),> 100 µM (inactive),> 100 µM (inactive),> 100 µM (inactive)
Oc1ccc(C(O)(c2ccccc2)c2ccccc2)c2ccccc12,3.27 µM (inactive),1.82 µM (inactive),1.22 µM (inactive),2.07 µM (inactive),1.25 µM (inactive),2.3 µM (inactive),3.75 µM (inactive),2.4 µM (inactive),3.25 µM (inactive),3.13 µM (inactive),,1.22 µM,2.4 µM (inactive),2.52 µM (inactive),1.77 µM (inactive),2.42 µM (inactive),1.07 µM (active),2.77 µM (inactive),3.85 µM (inactive),3.88 µM (inactive)
